Measurements reported in patent US20040038861A1, “Methods and compositions for normalizing lipid levels in mammalian tissues” (priority 2001, published 2004).
Read-outs that look alike come from different tables or passages of the source.

Experiments:
[1] = molecular target: T1, murine ramp 1/C1ins− receptor (Mus musculus, UniProt Q60755+Q9WTJ5); experiment: Radioligand binding and displacement of [3H]amylin in L6 myoblasts co-transfected with murine ramp 1 and C1ins−; conditions: 10 nM radioligand, FIG. 8D
T1 construct: expressed in transfected cells; host or cells: L6 myoblasts (ATCC), transient co-transfection of pcDNA3.1 plasmids
T1 sequence (Q60755 42-496 isoform Q60755-2 limits assumed): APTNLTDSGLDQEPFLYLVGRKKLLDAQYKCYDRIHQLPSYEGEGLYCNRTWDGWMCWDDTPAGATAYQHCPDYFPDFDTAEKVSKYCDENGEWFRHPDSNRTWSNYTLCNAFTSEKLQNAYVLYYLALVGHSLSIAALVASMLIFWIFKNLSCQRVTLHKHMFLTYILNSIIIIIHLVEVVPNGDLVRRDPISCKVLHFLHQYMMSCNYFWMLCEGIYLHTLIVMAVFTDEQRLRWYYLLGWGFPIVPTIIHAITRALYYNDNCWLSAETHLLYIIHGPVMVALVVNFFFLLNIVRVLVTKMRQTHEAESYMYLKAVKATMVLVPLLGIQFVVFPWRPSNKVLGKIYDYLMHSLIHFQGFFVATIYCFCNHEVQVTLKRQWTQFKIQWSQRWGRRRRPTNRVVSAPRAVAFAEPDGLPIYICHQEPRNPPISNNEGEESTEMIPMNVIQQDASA
T1 sequence (Q9WTJ5 27-148 partner): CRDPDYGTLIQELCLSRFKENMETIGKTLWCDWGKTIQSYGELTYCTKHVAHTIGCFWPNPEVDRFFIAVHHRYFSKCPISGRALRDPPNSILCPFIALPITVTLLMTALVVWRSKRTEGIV
Procedure: Transfection of L6 myoblasts and cos-7 cells, and analysis of radioligand binding. L6 myoblasts and cos-7 cells were obtained from ATCC. Both cell lines were cultered in Dulbecco's modified Eagle's medium (DMEM; Gibco/BRL, high glucose) supplemented with 10% fetal calf serum (Gibco/BRL, Gaithersburg, Md.), L-glutamine (2 mM), penicillin (100 U/ml; Sigma), streptomycin (100 mg/ml; Sigma), saline (0.85%), under 5% CO2/95% air at 37° C. The day before transfection, cells were trypsinised and seeded into six-well plates at a density of 2.9×10^5 cells/well in the same medium. For transfection, cells were incubated with a mixture comprising 1 μg each of Qiagen-purified (Qiagen, Valencia, Calif.) plasmids containing C1ins− with either ramp 1 or ramp 3, and Fugene reagent (6 μl; Boehringer Mannheim) in Opti-Mem I medium (Gibco/BRL). The complex was added with serum to cells, which were incubated for a further 48 h.
For binding experiments, radioligand (either alone or together with stated final concentrations of non-radiolabeled ligands) was dissolved in DMEM containing 0.1% BSA (binding buffer) for 1 h before binding experiments were performed. […] Cells were washed twice with this buffer, then incubated with 1 ml of the same plus radioligand for 4 h at room temperature (21° C.).

[2] = molecular target: binding sites for CGRP in rat liver membranes; conditions: cited from earlier work
[3] = molecular target: CGRP-1 binding sites in rat skeletal muscle membrane; conditions: rat skeletal muscle membrane preparations, cited from earlier work
Wistar rats [4] = experiment: Tissue free fatty acid and triglyceride content following infusion in normal-fed rats; assay type: in vivo, rat
Procedure: (§1) Surgery. Experiments were performed on male Wistar rats. Animals were randomly assigned to experimental groups as outlined below. Induction and maintenance of surgical anesthesia was by 3-5% halothane and 2L oxygen. An initial blood sample was taken from a tail artery for measurement of baseline levels of blood glucose and lactate, electrolyte, acid base and oxygen status and serum levels of free fatty acids, triglyceride and cholesterol. Immediately following this, the trachea was cannulated and the animal ventilated at 60-70 breaths.min-1 with air supplemented with O2. The respiratory rate and end-tidal pressure (10-15 cmH2O) were adjusted to maintain end-tidal CO2 at 35-40 mmHg. Body temperature was maintained at 37° C. throughout surgery and the experiment by a heating pad. The carotid artery and jugular vein were cannulated with a solid-state blood pressure transducer and a saline filled PE 50 catheter respectively. For the antagonist infusion studies, surgery was similar to above with the alteration being that both the carotid artery and jugular vein were cannulated with saline filled PE 50 catheters. Fluids (saline or hormone dissolved in saline) were delivered to the jugular vein with a Y-connector to join the two lines. The carotid artery line was connected to a blood pressure transducer. Blood samples were taken from this line at time zero (baseline reading), 30 minutes and every 20 minutes until the end of the experiment at 90 minutes.
(§2) Infusion. […] Blood glucose measurements were taken from tail capillaries at 5-minute intervals throughout the duration of the experiment. At the end of the infusion a terminal blood sample was taken by cardiac puncture and analysed as per the basal sample and also for various metabolites and hormones. Serum and plasma samples were stored at −80° C. until future analysis. Animals were killed by cervical dislocation and harvested tissues (brain, liver, kidney, soleus muscle, extensor digitorum longus muscle, left ventricle, retroperitoneal and epididymal fat pads) snap frozen in liquid N2 and stored at −80° C. until future analysis. For the antagonist studies, the protocols was the same as above with the following changes: Infusion was a combination of antagonist, CGRP or saline.

Wistar rats [5] = experiment: Serum hormones and blood metabolites following acute CGRP infusion in anaesthetised normal-fed rats; assay type: in vivo, rat; conditions: end vs commencement of infusion
Procedure: as §1
as §2, with “analysis.” for “analysis. For the antagonist studies, the protocols was the same as above with the following changes: Infusion was a combination of antagonist, CGRP or saline.”

soleus muscle = experiment: Masoprocol effect on CGRP1-evoked NEFA and triglyceride contents in soleus muscle from high fat-fed rats; assay type: cell-based, rat
Description: Masoprocol, (nordihydroguaiaretic acid), is a lipoxygenase inhibitor, that has been identified as the active component of Creosote bush extracts. Oral administration of this compound lowers serum NEFA and triglyceride concentrations in rats with fructose-induced hypertriglyceridemia (Gowri et al. 2000, Am. J. Physiol. 279: E593-E600), and decrease blood glucose and triglyceride concentrations in a fat-fed/streptozotocin rat model (Reed et al. 1999, Diabetologia 42: 102-106).

[6] = read-out: Kd, high affinity binding site
[7] = read-out: Kd, second binding site
[8] = 1 pM CGRP1, high fat-fed soleus
[9] = 100 nM CGRP1, high fat-fed soleus

In the case of Rat amylin, the “specific binding of [3H]radioligand to L6 myoblasts co-transfected with ramp 1 and C1ins−” value [1] is reported as “significant increases in specific binding”.
For rat CGRP-1, the Kd [2, 6] is given as about 0.044 nM, the Kd [2, 7] is given as about 27 nM and the Kd [3, 6] is given as about 0.037 nM. For the same substance, the Kd [3, 7] was about 6 nM, the “FFA content, Heart” value (Wistar rats [4]; CGRP 100 pmol/kg/min 1 h, CGRP-(8-37) 10 nmol/kg/min 90 minutes, control 0.8 ± 0.2) was 0.9 ± 0.1 µmol/g and the “FFA content, Liver” value (Wistar rats [4]; same infusions, control 0.1 ± 0.01) was 0.7 ± 0.1 µmol/g. For the same substance, the “FFA content, Soleus Muscle” value (Wistar rats [4]; same infusions, control 0.2 ± 0.02) was 0.6 ± 0.07 µmol/g, the “FFA content, Kidney” value (Wistar rats [4]; same infusions, control 0.8 ± 0.1) was 0.9 ± 0.2 µmol/g and the “FFA content, Epi Adipose” value (Wistar rats [4]; same infusions, control 2.1 ± 0.5) was 2.7 ± 0.7 µmol/g. The “triglyceride content, Kidney” value (Wistar rats [4]; same infusions, control 2.8 ± 0.5) was 2.4 ± 0.4 µmol/g, the “triglyceride content, Heart” value (Wistar rats [4]; same infusions, control 2.9 ± 0.4) was 2.6 ± 0.4 µmol/g and the “triglyceride content, Soleus Muscle” value (Wistar rats [4]; same infusions, control 3.7 ± 0.4) was 1.5 ± 0.2 µmol/g. The “triglyceride content, Liver” value (Wistar rats [4]; same infusions, control 4.3 ± 0.3) was 2.2 ± 0.5 µmol/g, the “triglyceride content, Epi Adipose” value (Wistar rats [4]; same infusions, control 5.1 ± 1.2) was 5.0 ± 0.9 µmol/g and the “Change in [serum] Triglyceride” value (Wistar rats [5]; CGRP 60 min, CGRP-(8-37) 90 min, control 0.2) was -0.7 mmol/L. The “Change in [serum] FFA” value (Wistar rats [5]; control −0.1) was 0.4 mmol/L, the “Change in Lactate” value (Wistar rats [5]; heparinised whole blood, control 0.3) was 1.7 mmol/L and the NEFA elevation (soleus muscle; [8]) was 482 ± 99 nmol/g. The “soleus triglyceride content (decrement)” value (soleus muscle; [8]) was 1.2 mmol/g, the NEFA elevation (soleus muscle; [9]) was 533 ± 114 nmol/g and the “soleus triglyceride content (decrement)” value (soleus muscle; [9]) was 1.2 mmol/g.
